Source: patent US10159685B2, “Vascular calcification” (Cambridge Enterprise Limited, priority 2016, dated 2018)
Where two headings read alike, the source gives them in different places. Marks after values point to notes of the source that are not given here.

Assays:
[1] = system: bovine vascular smooth muscle cells (bVSMCs); format: cell-based; conditions: 7 days; for Cell viability of bVSMCs after seven days (MTT signal, relative to control): mean of three experiments
Protocol: The toxicity of the identified compounds to bovine VSMCs was measured using the MTT assay, which measures the activity of dehydrogenase enzymes of live cells. This assay can pick up both cell death and proliferation.
Bovine VSMCs were seeded in 96 well plates and cultured in M199/20% FCS for 1 day. Then, the cells were incubated with inhibitor concentrations from 0.5 to 100 μM (in M199 medium+5% FBS). The cells were incubated with the inhibitors for 7 days; every 2-3 days the medium −/+inhibitors was exchanged. Then, the MTT assay was performed. The stock vehicle DMSO was tested at corresponding concentrations to the inhibitors at 0.1% DMSO or less.

[2] = system: human monocyte-macrophages (HMMs); assay: MTT toxicity assay, HMMs, seven days (Example 3); format: cell-based; conditions: 7 days; for Cell viability by MTT, percent of control: mean of three experiments; for Toxicity to HMMs (in words): at a concentration of 100 μM
Protocol: A similar set of toxicity experiments was performed with human monocyte-macrophages (HMMs).

[3] = system: PARP produced by a mammalian cell; conditions: have been shown; cited from earlier work
[4] = system: bovine vascular smooth muscle cells (bVSMCs); assay: o-Cresolphthalein Ca2+ assay, bVSMC GAD calcification model (Examples 4 and 5); format: cell-based; conditions: GAD-treated bVSMCs, 10 μM, 7 d
Protocol: (§1) For the bVSMCs a GAD medium (10 mM β-glycerophosphate/0.1 mM L-ascorbic acid-2-phosphate/10 nM dexamethasone) model was used to induce mineralization in bVSMCs. Accordingly, cells were seeded in tissue culture plates using M199/20% FCS culture medium and cultured overnight. The next day, cells were treated either with medium only (M199/5% FBS)+/−inhibitors, or with the GAD-medium (10 mM β-glycerophosphate/0.1 mM L-ascorbic acid-2-phosphate/[…] dexamethasone)+/−inhibitors.
Medium+/−inhibitors was exchanged every 2-3 days. […]
The o-Cresolphthalein assay is a spectrophotometric method for measuring Ca^2+-concentrations in cell/tissue lysates. Following the calcification experiments, cells are briefly washed to remove medium and 100 […]1 of 0.1 N HCl is added to each well to dissolve any mineral deposits. Then, the Ca^2+-concentration of the samples is measured spectrophotometrically (at 570 nm) in the o-cresolphthalein assay with the help of a CaCl2 standard curve in a concentration range of ˜0.02-270 µg Ca^2+/ml.
The commercial BioRad DC protein assay is based on the Lowry method, aka reaction of proteins with a copper-tartrate complex and subsequent reaction with Folin's reagent. Following the calcification experiment, cells are briefly washed to remove medium and 100 µl of solubilisation solution (0.1 M NaOH/1% SDS/DIW) is added to each well to lyse the cells. The protein concentrations of the lysates are subsequently determined in the BioRad DC assay as per supplier's instructions using BSA (bovine serum albumin) as standard.
The in vitro model is the same as the model used in example 4; bovine vascular smooth muscle cells (bVSMCs) cultured so that they produce extracellular matrix, with the addition of the GAD medium (10 mM β-glycerophosphate/0.1 mM L-ascorbic acid-2-phosphate/10 nM dexamethasone).
As above, cells were treated either with medium only (“no-additions”; NA)+/−inhibitors, or with the GAD-medium+/−inhibitors. The inhibitors used were PJ34 and minocyclin (MC) at 10 μM, 1 μM and 0.1 μM.
The methodology was the same as that described in example 4.

[5] = system: bovine vascular smooth muscle cells (bVSMCs); assay: Alizarin Red S staining, bVSMC GAD calcification model (Example 4); format: cell-based; conditions: GAD-treated bVSMCs, 10 μM, 7 d, versus no inhibitor
Protocol: as §1
Medium+/−inhibitors was exchanged every 2-3 days. Bovine VSMCs were incubated for 7 d prior to assessment.
The Alizarin Red S staining is a visual/histological stain for tissue calcium deposits. Cells are briefly fixed in 4% paraformaldehyde/PIPES buffer pH 7.2 and subsequently stained for 5 min with Alizarin Red S (2% Alizarin Red S/DIW pH 4.2). Excess stain is removed by washing in DIW. Calcium mineral deposits are stained a bright orange red.

[6] = system: human vascular smooth muscle cells (hVSMCs); assay: o-Cresolphthalein Ca2+ assay, hVSMC Ca/P calcification model (Examples 7-9); format: cell-based
Protocol: (§2) Primary hVSMCs were cultured in M199 media containing FBS (M199/5% FBS). They were plated at a known cell density, allowed to grow for 24 hours and then treated with control (DMSO only) or calcification media (DMSO containing 2.7 mM Calcium+2.5 mM phosphate)+/−inhibitors. After 6 days, calcification was assessed using the o-Cresolphthalein assay for quantification of Ca^2+ deposition and a BioRad protein assay for protein content.
Medium+/−inhibitors was exchanged every 2-3 days.
as §2, with “8” for “6”, “using” for “using the”
All of the compounds tested were used at a concentration of 3 μM. Medium+/−inhibitors was exchanged every 2-3 days.
as §2, with “phosphate)+/−compounds.” for “phosphate)+/−inhibitors.”, “8” for “6”, “using” for “using the”
These concentrations were chosen to mimic the systemic concentrations of these drugs following patient dosing according to the dose schedule in the prescribing information for each drug. Medium+/−inhibitors was exchanged every 2-3 days.

[7] = hVSMCs, 6 days, PJ34 10 μM, minocycline and cilostazol 0.5, 1 and 2 μM

SMILES | Cell viability of bVSMCs after seven days (MTT signal, relative to control) ([1]; 0.5 uM) | Cell viability of bVSMCs after seven days (MTT signal, relative to control) ([1]; 1 uM) | Cell viability of bVSMCs after seven days (MTT signal, relative to control) ([1]; 2 uM) | Cell viability of bVSMCs after seven days (MTT signal, relative to control) ([1]; 5 uM) | Cell viability of bVSMCs after seven days (MTT signal, relative to control) ([1]; 10 uM) | Cell viability of bVSMCs after seven days (MTT signal, relative to control) ([1]; 20 uM) | Cell viability of bVSMCs after seven days (MTT signal, relative to control) ([1]; 50 uM) | Cell viability of bVSMCs after seven days (MTT signal, relative to control) ([1]; 100 uM) | Cell viability by MTT, percent of control ([2]; 0.5 uM) | Cell viability by MTT, percent of control ([2]; 1 uM) | Cell viability by MTT, percent of control ([2]; 2 uM) | Cell viability by MTT, percent of control ([2]; 5 uM) | Cell viability by MTT, percent of control ([2]; 10 uM) | Cell viability by MTT, percent of control ([2]; 20 uM) | Cell viability by MTT, percent of control ([2]; 50 uM) | Cell viability by MTT, percent of control ([2]; 100 uM) | Toxicity to HMMs (in words) [2] | Calcium levels (mass of calcium, FIG. 7B) compared to no inhibitors [4] | Normalised calcium levels (mass of calcium per mass of protein, FIG. 9B) [4] | Toxicity to bVSMCs (MTT assay, in words) ([1]; at 50 and 100 μM) | other results
NC(=O)c1cccc(N)c1 [3-AB, 3-aminobenzamide] | 95.77 | 99.58 | 94.53 | 93.35* | 91.99* | 93.42* | 94.64 | 92.48* | 115.25 | 80.78 | 88.03 | 93.51 | 97.34 | 85.76 | 95.92 | 104.20 | relatively innocuous | no effect | slightly lower calcium levels |  | Toxicity to bVSMCs (MTT assay, in words) ([1]; at the concentrations tested (0.5 to 100 μM)): virtually non-toxic; Inhibition of PARP produced by a mammalian cell [3]: inhibit PARP
OCCN(CCO)c1nc(N2CCCCC2)c2nc(N(CCO)CCO)nc(N3CCCCC3)c2n1 [Dipyridamol, dipyridamol] |  |  |  |  |  |  |  |  |  |  |  |  |  |  |  |  |  | elevate calcium levels | elevate calcium levels | toxic | Degree of mineralization judged by eye (Alizarin Red S, FIG. 6) [5]: slightly worse
O=C1CCc2cc(OCCCCc3nnnn3C3CCCCC3)ccc2N1 [cilostazol] | 98.22 | 93.93 | 86.31* | 86.87* | 88.38* | 90.45* | 84.93* | 65.21* | 105.05 | 103.62 | 75.63 | 90.74 | 79.83 | 81.50 | 73.73 | 77.06 | relatively innocuous | no effect | does not appear to have an effect | toxic | Extracellular matrix calcification (summary statement) ([6]; bovine cell and human cell in vitro vascular calcification model): significantly reduce extracellular matrix calcification; Calcium levels (mass of calcium, FIG. 17) versus DMSO Ca+P positive control [6, 7]: reduce the calcium levels; Normalised calcium levels (mass of calcium per mass of protein, FIG. 19) [6, 7]: lower calcium levels significantly; Normalised calcium levels (mass of calcium per mass of protein, FIG. 22) ([6]; hVSMCs, 8 days, 3 μM): particularly effective; Inhibition of calcification, normalised results (FIG. 27) ([6]; hVSMCs, 8 days, concentrations between 0.05 μM and 3 μM): inhibit calcification significantly and repeatedly
